Assay results reported in article PMC8244912, “An oxytocin/vasopressin-related neuropeptide modulates social foraging behavior in the clonal raider ant” (PLoS Biology, 2021).
Entries after “also recorded” stand apart in the source; their conditions may differ. Where a SMILES comes first, the peptide text is derived from it. Bridges are numbered along the chain shown (N, C = ends).

Tests used:
[1] = tested on: HEK293T cells transfected with an empty vector; test: Calcium imaging (fura-2), empty vector; type: cell-based, human
Description: (§1) Experiments were conducted following Garrison J.L., et al 2012 [8] with modifications. Human embryonic kidney 293T cells (HEK293T) were cultured in DMEM and supplemented with 10% FBS at 37 °C in a cell incubator containing 5% CO^2. Cells were grown in 35 mm MatTek glass bottom dishes to a level of 60 – 70% confluency. Cells were transfected with a 1:1 ratio of PCDNA3.3 containing ~ 1μg of itcR cDNA (full-length isoform A or truncated isoform H) (See S1 Fig for isoforms) and pcDNA3-alpha 16 (encoding promiscuous G protein 16) using Lipofectamine 2000. Cells were incubated for 24 h at 37 °C and then transferred to 28 °C for another 16-24 h. For control experiments, empty vector was also transfected. On the day of the experiment, the cells were loaded with […] fura-2/AM (Invitrogen) for 25 min at 37 °C. Inotocin peptide diluted in Ringer’s solution was applied to the cells for 15 s with a peristaltic pump, and fluorescence at 510 nm was monitored (excitation at 340/380 nm) using a MetaFluor calcium imaging system with a Nikon Eclipse TE2000U microscope.

[2] = tested on: O. biroi inotocin receptor (itcR); test: Calcium flux, inotocin receptor co-transfected with G proteins or empty vector; type: cell-based, Ooceraea biroi
Description: (§2) Human embryonic kidney 293T (HEK293T) cells were cultured in DMEM supplemented with 10% FBS at 37°C in a tissue culture incubator with a humidified atmosphere containing 5% CO2. Cells were plated in 10-cm dishes, and, when they reached 60% to 70% confluency, they were transfected with a pcDNA3.3 vector containing approximately 1 ng of inotocin receptor cDNA or an empty vector as a control using Lipofectamine 2000. Cells were transfected directly into poly-D-lysine–coated 384-well plates and incubated for 48 hours at 37°C. Subsequently, cells were incubated with FLIPR Calcium 4 Assay kit dye for 1 hour in the incubator. The fluorescence (excitation, 488 nm; emission, 530 nm) of the wells was recorded using a Flex Station II 384 (Molecular Devices, San Jose, California, USA), and a dose curve of inotocin (0 to 3 μM) was applied to the wells, in sextuplicate (see below for inotocin peptide synthesis). We calculated the EC50 values using Prism (GraphPad Software version 8) nonlinear regression, 4-parameter logistic curve fit. Dose curves were repeated at least 3 times on independently prepared samples and different days. Results were consistent across replicates, and example dose curves are shown in Fig 1C and S4A Fig. Control experiments are shown in S2–S5 Figs.
(C and D) Co-transfection with Gq alpha 16. (E and F) Co-transfection with Gq alpha with Gi alpha C term chimera. […]

[3] = biological target: O. biroi inotocin receptor (ObiroiItr_A) (Ooceraea biroi, UniProt A0A8F5LPT9); test: Calcium flux, HEK293T cells transfected with full-length inotocin receptor (FLIPR Calcium 4); type: cell-based; conditions: for HillSlope / LogEC50: variable slope; for LogEC50: X data log of Molar_Inotocin
Source text: RNA was isolated in TRIzol using the RNeasy (Qiagen, Germantown, Maryland, USA) purification kit with DNAse I (Qiagen) on-column digestion as in [52] from a sample that contained adult ants, larvae, and pupae and reverse-transcribed into cDNA. Full-length cDNAs for the O. biroi inotocin receptor were PCR amplified with primers 5′-[…]-3′ and 5′-[…]-3′, using the Easy-A high fidelity polymerase (Agilent, Santa Clara, California, USA) to generate PCR products with 5′-Kozak consensus sequences and 3′-A overhangs. The inotocin receptor cDNAs were cloned into the pcDNA3.3 TOPO TA cloning vector (Invitrogen, Waltham, Massachusetts, USA) following manufacturer’s guidelines.
The full-length inotocin receptor cDNA sequence that was cloned and used for calcium assays is ObiroiItr_A (GenBank MW660838; for protein sequence, see S1 Fig). We also tested splice variant ObiroiItr_H (GenBank MW660845; for protein sequence, see S1 Fig), which lacks TM4-7, for calcium activity.
as §2, with “[…],” for “and a dose curve of inotocin (0 to 3 μM) was applied to the wells,”, “days.” for “days. Results were consistent across replicates, and example dose curves are shown in Fig 1C and S4A Fig. Control experiments are shown in S2–S5 Figs.”

[4] = tested on: O. biroi inotocin receptor ObiroiItr_A; test: Calcium imaging (fura-2), full-length receptor isoform A with G protein 16; type: cell-based, Ooceraea biroi; conditions: ObiroiItr_A and G protein 16; fura-2, 510 nm, ex 340/380 nm; peptide for 15 s
Description: as §1

Chain of O. biroi inotocin receptor (ObiroiItr_A) (A0A8F5LPT9 entry or part of it): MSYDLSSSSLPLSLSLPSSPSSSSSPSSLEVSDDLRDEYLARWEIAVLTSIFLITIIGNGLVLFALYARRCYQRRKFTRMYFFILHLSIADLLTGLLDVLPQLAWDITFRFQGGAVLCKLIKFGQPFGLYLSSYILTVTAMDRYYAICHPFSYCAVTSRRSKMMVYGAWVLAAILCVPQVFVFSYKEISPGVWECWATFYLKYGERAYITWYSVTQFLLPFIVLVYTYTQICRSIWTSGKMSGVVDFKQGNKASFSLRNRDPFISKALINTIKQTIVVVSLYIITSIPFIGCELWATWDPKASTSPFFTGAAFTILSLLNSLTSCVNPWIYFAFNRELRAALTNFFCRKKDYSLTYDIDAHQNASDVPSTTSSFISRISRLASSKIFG

In the case of `CC[C@H](C)[C@@H]1NC(=O)[C@H](CC(C)C)NC(=O)[C@@H](N)CSSC[C@@H](C(=O)N2CCC[C@H]2C(=O)N[C@@H](CCCNC(=N)N)C(=O)NCC(N)=O)NC(=O)[C@H](CC(N)=O)NC(=O)[C@H]([C@@H](C)O)NC1=O` [Inotocin] (H-CLITNCPRG-NH2; disulfide 1-6; N-terminus and C-terminus assumed), the “calcium signal” value [1] is reported as “No calcium signal is detected”, the “calcium response” value ([2]; co-transfection with Gq alpha 16, Gq alpha with Gi alpha C term chimera, or Gq alpha with Go alpha C term chimera compared with empty vector) is reported as “does not require co-transfection with a G-protein” and the “calcium response” value ([2]; itcR co-transfected with empty vector (no G protein), 28°C or constantly 37°C) is reported as “response in a dose dependent manner; also recorded: show calcium responses when stimulated with inotocin”. The HillSlope ([3]; Fig 1C data, Experiment 33015, SE 0.01132, 95% CI 0.2802 to 0.3251) was 0.3027, the LogEC50 ([3]; Fig 1C data, Experiment 33015, SE 0.05558, 95% CI -11.24 to -11.02) was -11.13 and the “calcium response” value ([3]; HEK293T cells expressing full-length itcR) was “responds in a dose-dependent manner to inotocin; also recorded: responded with calcium signals”. For the same compound, the HillSlope ([3]; S4A Fig, 032515_plate 2, SE 0.02063, 95% CI 0.2625 to 0.3443) was 0.3034, the LogEC50 ([3]; S4A Fig, 032515_plate 2, SE 0.1002, 95% CI -11.47 to -11.07) was -11.27 and the “half-maximal effective concentration (EC50), in words” value ([3]; cells transfected with the inotocin receptor, calcium signals) was “picomolar”. For the same compound, the “calcium signal” value [4] was “Calcium signal is detected”.
